From PMC11579541, “In vitro, in vivo, and in silico approaches for evaluating the preclinical DMPK profiles of ammoxetine, a novel chiral serotonin and norepinephrine reuptake inhibitor” (Frontiers in Pharmacology, 2024)

Assays:
Assay in all cases: CYP inhibition, cocktail-substrate method in HLM
Type in all cases: in vitro ADME
CYP 2A6 = target: T1, CYP 2A6 (Homo sapiens, UniProt P11509); settings: probe coumarin
T1 construct: 0.5 mg/mL HLM, 1 mmol/L NADPH, and a cocktail of 10 probe substrates for 9 CYP isoforms; tissue BD (Woburn, USA); host or cells: pooled human liver microsomes
T1 sequence (P11509 1-494): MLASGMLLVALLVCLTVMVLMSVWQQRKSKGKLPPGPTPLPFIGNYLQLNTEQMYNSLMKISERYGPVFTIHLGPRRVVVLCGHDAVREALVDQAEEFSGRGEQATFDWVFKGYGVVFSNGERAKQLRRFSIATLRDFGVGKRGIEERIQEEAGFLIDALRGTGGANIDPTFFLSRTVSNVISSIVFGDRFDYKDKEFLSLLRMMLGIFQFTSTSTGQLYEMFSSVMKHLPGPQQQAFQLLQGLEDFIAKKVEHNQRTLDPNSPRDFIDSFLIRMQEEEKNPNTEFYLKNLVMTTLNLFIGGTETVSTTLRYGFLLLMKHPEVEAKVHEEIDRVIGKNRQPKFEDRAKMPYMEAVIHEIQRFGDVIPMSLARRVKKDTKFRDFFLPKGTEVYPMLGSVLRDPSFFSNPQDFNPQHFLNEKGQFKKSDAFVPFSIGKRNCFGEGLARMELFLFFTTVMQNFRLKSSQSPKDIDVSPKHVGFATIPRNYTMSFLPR
Description: (§1) To assess the CYP inhibition profiling of ammoxetine, a high-throughput assay based on the cocktail-substrate method was performed, as described in the literature ([Kim et al., 2005]; [Kozakai et al., 2014]). Microsomal incubations were conducted in triplicate for 30 min at 37°C in a reaction system (200 μL) consisting of […] potassium phosphate buffer (pH 7.4), 0.5 mg/mL HLM, 1 mmol/L NADPH, and a cocktail of 10 probe substrates for 9 CYP isoforms. The final concentration of each CYP-specific substrate was chosen to be close to the Michaelis-Menten constant (K m ) value of the respective substrate ([Kim et al., 2005]; [Lee et al., 2024]). For instance, phenacetin (CYP 1A2) was used at a concentration of 50 μmol/L, coumarin (CYP 2A6) at 5 μmol/L, bupropion (CYP 2B6) at 50 μmol/L, amodiaquine (CYP 2C8) at 5 μmol/L, tolbutamide (CYP 2C9) at 100 μmol/L, S-mephenytoin (CYP 2C19) at 100 μmol/L, dextromethorphan (CYP 2D6) at 5 μmol/L, chlorzoxazone (CYP 2E1) at 50 μmol/L, and testosterone and midazolam (CYP 3A4) at 50 μmol/L. Ammoxetine was evaluated at five concentrations: 0.1, 1, 10, 50, and 100 μmol/L. Additionally, a blank control without ammoxetine was included. The incubation was terminated by adding an equal volume of ice-cold acetonitrile/methanol (1:1, v/v) along with the IS, dexmedetomidine (1 ng/mL). After a 20-fold dilution, the mixture was centrifuged at 13,800×g for 10 min at 4°C. The supernatants were used to measure the levels of metabolites from the respective probe substrates using an LC-MS-MS method. The half-maximal inhibitory concentration (IC50) values were subsequently calculated.

CYP 2B6 = target: T2, CYP 2B6 (Homo sapiens, UniProt P20813); settings: probe bupropion
T2 construct: 0.5 mg/mL HLM, 1 mmol/L NADPH, and a cocktail of 10 probe substrates for 9 CYP isoforms; tissue BD (Woburn, USA); host or cells: pooled human liver microsomes
T2 sequence (P20813 1-491): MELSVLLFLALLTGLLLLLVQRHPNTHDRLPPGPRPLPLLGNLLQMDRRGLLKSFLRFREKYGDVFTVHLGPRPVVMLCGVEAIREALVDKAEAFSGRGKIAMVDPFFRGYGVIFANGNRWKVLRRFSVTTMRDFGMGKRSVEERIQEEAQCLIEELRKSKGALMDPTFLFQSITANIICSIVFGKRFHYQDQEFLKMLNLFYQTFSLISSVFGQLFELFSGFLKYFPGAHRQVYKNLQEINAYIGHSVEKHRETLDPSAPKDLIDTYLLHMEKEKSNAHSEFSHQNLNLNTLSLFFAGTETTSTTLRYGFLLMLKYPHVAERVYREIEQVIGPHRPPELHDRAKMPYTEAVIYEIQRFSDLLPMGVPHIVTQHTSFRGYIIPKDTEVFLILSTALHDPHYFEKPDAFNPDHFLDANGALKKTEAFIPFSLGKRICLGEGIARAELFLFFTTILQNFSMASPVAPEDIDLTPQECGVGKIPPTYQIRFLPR
Description: as §1

CYP 2C8 = target: T3, CYP 2C8 (Homo sapiens, UniProt P10632); settings: probe amodiaquine
T3 construct: 0.5 mg/mL HLM, 1 mmol/L NADPH, and a cocktail of 10 probe substrates for 9 CYP isoforms; tissue BD (Woburn, USA); host or cells: pooled human liver microsomes
T3 sequence (P10632 1-490): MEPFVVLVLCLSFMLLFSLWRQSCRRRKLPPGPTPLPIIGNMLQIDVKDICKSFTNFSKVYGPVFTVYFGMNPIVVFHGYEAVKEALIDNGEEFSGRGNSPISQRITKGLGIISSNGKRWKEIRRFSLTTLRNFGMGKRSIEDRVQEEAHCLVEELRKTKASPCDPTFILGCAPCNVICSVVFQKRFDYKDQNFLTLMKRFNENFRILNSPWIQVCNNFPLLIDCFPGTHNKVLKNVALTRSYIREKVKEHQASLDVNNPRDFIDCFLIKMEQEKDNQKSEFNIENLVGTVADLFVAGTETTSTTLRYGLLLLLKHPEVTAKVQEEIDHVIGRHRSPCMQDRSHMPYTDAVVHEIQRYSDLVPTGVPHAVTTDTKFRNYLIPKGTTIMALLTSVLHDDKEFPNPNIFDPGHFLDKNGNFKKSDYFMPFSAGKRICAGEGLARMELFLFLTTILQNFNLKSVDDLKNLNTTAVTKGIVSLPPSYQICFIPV
Description: as §1

IC50 (CYP 2A6): > 100 µM | IC50 (CYP 2B6): > 100 µM | IC50 (CYP 2C8): > 100 µM
SMILES: CNCC[C@H](Oc1cccc2c1OCO2)c1cccs1 [ammoxetine]
